Entries after “also recorded” stand apart in the source; their conditions may differ.

From patent publication US20040102514A1 (priority 2003, published 2004) come the findings set out here.

Data set [1] relates to Sprague-Dawley rats. As to conditions: rat, in vivo.
In another data set the test system is weanling pigs. As to conditions: pig, in vivo.
The test system of data set [2] is Sprague-Dawley rats. As to conditions: rat, in vivo. The source holds these as a separate data set.

“7α, 15-benzylidene-3α,8αdiacetoxy-9α,12β-dimethyltrichothecan-12α-ol [EN139508]”: in the data set with Sprague-Dawley rats [1], the “duration of induced pattern” value is recorded as “approximately 30 minutes”, the “induction of fed pattern of gut motility” value is “induced a dose-dependent fed pattern of gut motility”, the “onset time of action (duodenal site D1)” value is recorded as “approximately 60 seconds” and the “pattern of gut motor activity induced” value is recorded as “induced a dose-dependent fed pattern of gut motility”. Besides, the “time of onset of action after administration” value with Sprague-Dawley rats [1] is recorded as “approximately 60 seconds”.

As for “7α,15-benzylidene-9α,12β-dimethyltrichothecan-3α,8α,12α-triol [EN139502]”, in the data set on Sprague-Dawley rats [1], the “delay before intensified fasting pattern” value is “approximately 5 min”, the “effect on fasting pattern of gut motility” value is “intensify or enhance the fasting pattern” and the “induction of fed pattern of gut motility” value is listed as “did not induce the fed pattern gut motility”.

Consider `CC1=C[C@H]2O[C@@H]3[C@H](O)C[C@](C)([C@@]2(CO)[C@H](O)C1=O)[C@]31CO1` [DON, 3α,7α, 15-trihydroxy-12,13-epoxy-trichothec-9-en-8-one], for which, in the data set on weanling pigs, the emesis entry is “some emesis occurred”; the “food consumption in the Day 1 AM meal following the treat” value is given as “decreased food consumption”; the “persistence of effect on food consumption at Day 1 PM and following meals” value was “wore off by the next meal”. Further, in the data set on Sprague-Dawley rats [1], the “induction of fed pattern of gut motility” value was “induced the fed pattern of gut motility”. Also, in the data set on Sprague-Dawley rats [2], the food consumption result was “immediate and sustained reduction; also recorded: concentration-dependant reduction; also recorded: decrease”; the weight gain result was “immediate and sustained reduction; also recorded: concentration-dependant reduction; also recorded: decrease”.

As for `C[C@@H]1C[C@H]2O[C@@H]3[C@H](O)C[C@](C)([C@]24COC(c2ccccc2)O[C@@H]4C1=O)[C@@]3(C)O` (stereo partly drawn) [EN139522, 7α,15-benzylidene-9α, 12β-dimethyl-3α, 12α-dihydroxytricocethcan-8-one], in the data set on Sprague-Dawley rats [1], the “duration of action (fed pattern)” value is 35 min, the “induction of fed pattern of gut motility” value is given as “induce a classic fed pattern” and the “time of onset of action after administration” value was determined as 20 s.
